{
  "source": "patent US20170360735A1",
  "about": "“INGESTIBLE EMULSION MATRIX FOR DELIVERY OF CREATINE” (DreamPak, priority 2016, published 2017)",
  "origin": "cited, not measured here",
  "key": {"[1]": {"conditions": "ingestion of 20-30 g creatine per day for several days"}, "[2]": {"conditions": "oral, estimated"}},
  "note": "Where two headings read alike, the source gives them in different places.",
  "data": [
    {"substance": "N-(aminoiminomethyl)-N-methylglycine [creatine]", "values": [
      {"measurement": "creatine dissolved in water", "setting": "at 70° F.", "value": "about 1.4%"},
      {"measurement": "creatine dissolved in water", "setting": "at 120° F.", "value": "about 4.5%"},
      {"measurement": "increase in human skeletal muscle creatine content", "setting": "[1]", "value": "greater than 20%"},
      {"measurement": "absorption rate from the gastrointestinal (GI) tract", "setting": "[2]", "value": "1-14%"}
    ]}
  ]
}
